Data taken from patent publication EP2241565A1, “Aurora kinase inhibitors compounds” (Universität Leipzig, priority 2009, dated 2010).

Experiments:
[1] = system: histone H3 phosphorylation on Ser 10; experiment: Western Blot analysis of histone H3 phosphorylation in mitotic cells; assay type: cell-based, human; details: mitotic HeLa cells synchronized with nocodazole, treated 20 h, any of the concentrations tested
Method: For Western Blot analysis of HH3 phosphorylation levels in mitosis HeLa cells were arrested with 2 mM thymidine for 18 h, released into fresh medium for 6 h, and blocked with 2 µM nocodazole for 16 h. DMSO or the different compounds were added 1 h after thymidine release. Mitotic cells were shaken off and lysed in 50 mM Tris pH 6,8- 2% SDS. Samples were sonicated and boiled. 30 µg protein extract (as determined by Bradford assay, Bio-Rad protein assay) was loaded on SDS-PAGE, transferred to a nitrocellulose membrane and blotted with anti-phospho HH3 (Upstate), anti-Aurora A and anti-tubulin antibodies (Sigma, DM1A).

[2] = system: H2B-GFP/mRFP-αTubulin HeLa cells; experiment: Time-lapse video microscopy of live cells; assay type: cell-based, human; details: 2 µM
Method: Upon treatment, living cells were added to a humidified chamber at 37 °C with 5% CO2 attached to a Carl Zeiss microscope (SN:3834000366) equipped with a Hamamatsu EM-CCD digital camera, controlled by AxioVision 4.6 software. Cells were imaged every 3 or 4.5 min (depending on the number of fields filmed) for over 16 h-24 h. Images were taken with the AxioCam MRm 426205 objective and processed using AxioVision software.
The increase in the proportion of cells with more than 2n DNA content could be due to several causes: several cycles of DNA replication or cytokinesis errors as shown for cells treated with other Aurora inhibitors. To determine the primary cause for the phenotype produced by (C) and examine whether (A) may interfere with mitosis, we examined live cells by time-lapse video microscopy. To visualize DNA and microtubules we used a HeLa stable cell line expressing H2B-GFP and mRFP-αTubulin. […] The resulting time-lapse images were used to determine the following parameters: (1) the percentage of cell death among non dividing cells (Figure 4A), (2) the percentage of cells entering mitosis (Figure 4B), (3) the outcome of mitosis: normal division (cell division), return to interphase without chromatin segregation and without dividing (no division), cytokinesis failure (division errors), cell death without resolving mitosis (cell death) (Figure 4C), and (4) the length of time spent in mitosis (TIM), defined as the interval between DNA condensation and anaphase resolution (Figure 4D).

[3] = system: hTERT-RPE1 cells; experiment: Cilia disassembly assay; assay type: cell-based; details: pretreatment 1-2 µM, serum stimulation after 48 h starvation
Method: Cilia assembly and disassembly assays were performed as described in Pugacheva et al., Cell 2007, 129, 1351-1363. […] For analysis of cilia disassembly, cilia were assembled by 48 h starvation in Opti-MEM, and disassembled by incubation in DMEM-10% serum. Cells were fixed after 2 and 4 h. […] To visualize the centrosomes and the cilia, fixed cells were immunostained with anti-γ-tubulin (Sigma GTU88) and anti-acetylated-tubulin (Sigma), and DNA was stained with Hoechst.

[4] = system: HeLa cells; experiment: Fixed cell analysis of mitotic phenotypes (fluorescence / immunofluorescence); assay type: cell-based, human; details: 2 µM, 24 h
Method: For fixed cell analysis, HeLa or H2B-GFP/mRFP-αTubulin HeLa cells were grown on glass coverslips and treated as described above. Cells were fixed in ice cold methanol and mounted in Mowiol. Alternatively, non fluorescent HeLa were treated and subjected to immunofluorescence with anti-tubulin antibodies (Sigma, DM1A) and Hoechst to stain the DNA. Cells were observed on a Leica DM16000B microscope with the HCX PL APO CS 63x 1.4 objective. Images were taken with a Leica DFC 350FX camera, controlled by Leica Application Suit (LAS-AF 6000) software and processed with Adobe Photoshop.
To get a better idea about the defects causing cell division failure in cells treated with (C), we examined fixed cells to better visualize the chromosomes and the microtubules. […] In parallel, standard HeLa cells were treated in the same way. The cells were fixed and processed for immunofluorescence with anti-tubulin antibodies to visualize the microtubules and Hoechst to stain the DNA.

[5] = system: HeLa cells; experiment: Flow cytometry (FACS) DNA content / cell cycle profile; assay type: cell-based, human; details: 24 h
Method: Adherent HeLa cells were routinely passaged and maintained in D-MEM medium supplemented with 10% Fetal Bovine Serum (FBS), 1% Penicillin/Streptomycin and 2 mM L-Glutamine. The cells were cultured at 37 °C; 5% CO2. hTERT-RPE1 cells were grown in DMEM with 10% fetal bovine serum. HeLa cells constitutively expressing green fluorescent protein-conjugated Histone H2B and mRed fluorescent protein-conjugated α-tubulin were maintained in D-MEM medium supplemented with 10% Fetal Bovine Serum (FBS), 1% Penicillin/Streptomycin, 2 mM L-Glutamine and 0.5 µg/mL Puromycin and cultured at 37 °C; 5% CO2.
After treatment, FACS analysis was performed on a BD FACSCanto™ Flow Cytometer (Cat.No. 335860 BD Biosciences) using FACSDiva Software. Cells were trypsinized, washed wish PBS and fixed overnight in EtOH (-20°C). After washing with PBS, cells were stained with a propidium iodide solution (PI; 15 µg/mL)/ RNase A (30 µg/mL) for 30 min at 37 °C. RNase was added to avoid signals caused by the binding of PI to RNA.
We first examined by flow cytometry the cell cycle profiles of HeLa cells incubated in medium containing increasing concentrations of any of (A) or (C) for 24 h.

## COc1cc2c(Nc3ccc(NC(=O)c4ccccc4)cc3)ncnc2cc1OCCCN1CCOCC1 [ZM1, reference compound]
[1]
  HH3-Ser10 phosphorylation: strongly reduced
[2]
  time spent in mitosis (TIM): 306 min
[2]; 16 h-24 h
  number of cells entering mitosis: decreased by half
[2]; of cells in mitosis
  cells that de-condensed their DNA and went back to interphase without chromosome segregation: 76%
[3]
  cilia disassembly: did not have any effect
[4]
  mitotic phenotype of fixed cells: strong increase of the number of mitotic cells showing chromosome alignment defects in metaphase
[5]; 2µM, HeLa cells
  % of cells 2<n<4: 2.8%
  % of cells 2n: 1.2%
  % of cells 4n: 51.1%
  % of cells <2n: 3.0%
  % of cells >4n: 43.5%
[5]; ZM1 2 µM, (A) and (C) increasing concentrations
  effect on DNA content / distribution of cells in the cell cycle stages: increased the proportion of cells with 4n and 8n DNA content
